The subject of series [1] is indicated HLA alleles. In words: Stability of mutant EGFR neopeptides with the HLA alleles. It is filed as binding, human. The conditions noted are these: EGFR_T790M. Here is the method:
Multiple peptides containing neoepitopes in the table below were either expressed or loaded onto antigen presenting cells. Mass spectrometry was then performed and the affinity of the neoepitopes for indicated HLA alleles were determined, and the stability of the neoepitopes with the HLA alleles were determined.

For series [2] the following is noted: for Solubility in […] SS in D5W w/ 4% DMSO: […] sodium succinate in D5W; for solubility: without DMSO; for Solubility in […] SS in D5W w/o DMSO / Solubility in Poly ICLC + […] SS in D5W w/o DMSO: no DMSO; for solubility in low SS: lower SS concentration ([…] SS/D5W).
Experimental: All buffers were prepared daily. […] Peptides were weighed into 15 mL or 50 mL conical tubes using a Mettler Toledo XP105 Delta Mass analytical balance and the actual gross weight was recorded and used to determine how much DMSO to obtain 50 mg/mL. The calculation is shown below:
DMSO (μL)=(Actual gross weight (mg)*264 μl)/(Target gross weight (mg)) Equation 4.
The stock was then diluted to 2 mg/mLL (1 part DMSO stock, 24 parts buffer) in the appropriate formulation buffer.
Peptides weights and percent content were calculated as described above and the appropriate buffer was added directly to the peptides. The target gross weight calculated using Eq. 3 and the volume of buffer used to obtain 2 mg/mL peptide was calculated using Equation 5.
Buffer (ml)=(Actual gross weight (mg)*6.6 mL)/(Target gross weight (mg)) Equation 5.
Peptides were further diluted 1:4 with buffer to obtain 0.4 mg/mL or, only when indicated, was buffer added directly to the dry peptide to obtain 0.4 mg/mL. In the latter case, Equation 6 to determine the appropriate volume to add.
Buffer (ml)=(Actual gross weight (mg)*33 mL)/(Target gross weight (mg)) Equation 6.
The peptides were dissolved by inverting the conical tubes and not by sonicating or vortexing them.
To pool 5 peptides, equal volume from each 2 mg/mL stock was combined to obtain 0.4 mg/mL of each peptide. In the case of pools with less than 5 peptides, equal volumes of the peptides were combined then the solution was diluted with the appropriate buffer to obtain 0.4 mg/mL of each peptide. The pools were inverted 3-5 times to mix. The formulated peptides were transferred to glass vials to visualize solubility. Photographs were taken every two hours to note any changes in appearance.
Pools were combined at a 3:1 ratio of peptide to polyICLC using 150 μL polyICLC with 450 μL peptide pool in a 2 mL glass vial. The solution was inverted 3-5 times to mix and photographs were taken every two hours for 6 hours to note any changes in appearance. All pH measurements were made using a Mettler Toledo inLab Micro pH meter, which was calibrated every day before use. 100 μL of the sample being analyzed was removed and added to a microcentrifuge tube to measure the pH. The sample was then discarded. Samples by UPLC-MS (Waters Acquity H-Class with an Acquity QDa mass spectrometer). A 2 μL injection of each sample was analyzed in duplicate using an 8 minute gradient from 10:90 solvent A:B to 50:50 solvent A:B (A:0.1% TFA/water, B: 0.1% TFA:acetonitrile).

Read-outs that look alike come from different tables or passages of the source. Where a SMILES comes first, the peptide text is derived from it. Where no end group is shown, it is not given here.

With `CC[C@H](C)[C@H](N)C(=O)N[C@@H](CCSC)C(=O)N[C@@H](CCC(N)=O)C(=O)N[C@@H](CC(C)C)C(=O)N[C@@H](CCSC)C(=O)N1CCC[C@H]1C(=O)N[C@@H](Cc1ccccc1)C(=O)NCC(=O)N[C@@H](CS)C(=O)N[C@@H](CC(C)C)C(=O)O`, the “Stability (1/2 hr)” value in series [1] (HLA A02.01) came out at 0.5156 h; in series [1] (HLA A24.02), 0 h; in series [1] (HLA B08.01), 0 h.

In the case of `CSCC[C@H](NC(=O)[C@H](CC(C)C)NC(=O)[C@H](CCC(N)=O)NC(=O)[C@@H](N)CCSC)C(=O)N1CCC[C@H]1C(=O)N[C@@H](Cc1ccccc1)C(=O)NCC(=O)N[C@@H](CS)C(=O)N[C@@H](CC(C)C)C(=O)O`, the “Stability (1/2 hr)” value in series [1] (HLA A02.01) was 0.3683 h; in series [1] (HLA B07.02), 0 h; in series [1] (HLA B08.01), 0 h.

Consider `CC[C@H](C)[C@H](NC(=O)[C@H](CC(C)C)NC(=O)[C@@H](N)CCC(N)=O)C(=O)N[C@@H](CCSC)C(=O)N[C@@H](CCC(N)=O)C(=O)N[C@@H](CC(C)C)C(=O)N[C@@H](CCSC)C(=O)N1CCC[C@H]1C(=O)N[C@@H](Cc1ccccc1)C(=O)O`, for which the “Stability (1/2 hr)” value in series [1] (HLA A02.01) came to 0.3407 h; in series [1] (HLA A24.02) it was 0.3687 h; in series [1] (HLA B08.01), 0 h.

On to `CC[C@H](C)[C@H](NC(=O)[C@H](CC(C)C)NC(=O)[C@H](CCC(N)=O)NC(=O)[C@@H](N)C(C)C)C(=O)N[C@@H](CCSC)C(=O)N[C@@H](CCC(N)=O)C(=O)N[C@@H](CC(C)C)C(=O)N[C@@H](CCSC)C(=O)N1CCC[C@H]1C(=O)N[C@@H](Cc1ccccc1)C(=O)O`, for which the “Stability (1/2 hr)” value in series [1] (HLA A02.01), in series [1] (HLA A24.02) and in series [1] (HLA B08.01) was 0 h throughout.

Turning to `CSCC[C@H](N)C(=O)N[C@@H](Cc1ccccc1)C(=O)N[C@@H](C)C(=O)N[C@H](C(=O)N[C@@H](CC(C)C)C(=O)N[C@@H](CCC(N)=O)C(=O)N[C@@H](CCCNC(=N)N)C(=O)N[C@@H](CO)C(=O)N[C@@H](CO)C(=O)N[C@@H](CC(C)C)C(=O)N[C@@H](Cc1c[nH]c2ccccc12)C(=O)N[C@@H](CS)C(=O)N[C@@H](CC(C)C)C(=O)N[C@@H](CS)C(=O)N[C@@H](CO)C(=O)N[C@@H](CC(N)=O)C(=O)N[C@@H](Cc1c[nH]cn1)C(=O)O)[C@@H](C)O` [Peptide 12b] (H-MFATLQRSSLWCLCSNH-OH), in series [2] (0.5 mM sodium succinate in D5W, 4% DMSO, no polyICLC), the “Solubility in 0.5 mM SS in D5W w/ 4% DMSO” value was “Yes”. The “Solubility in […] SS in D5W w/ 4% DMSO” value in series [2] (4% DMSO, no polyICLC) is listed as “Yes”. The “Solubility in Poly ICLC + […] SS in D5W w/ 4% DMSO” value in series [2] (with polyICLC, 4% DMSO) is on record as “No”.

In the case of `CC[C@H](C)[C@H](NC(=O)[C@H](CCCCN)NC(=O)[C@H](CO)NC(=O)[C@@H](N)CCC(=O)O)C(=O)N[C@@H](CCSC)C(=O)N[C@@H](Cc1ccccc1)C(=O)N[C@@H](C)C(=O)N[C@H](C(=O)N[C@@H](CC(C)C)C(=O)N[C@@H](CCC(N)=O)C(=O)N[C@@H](CCCNC(=N)N)C(=O)N[C@@H](CO)C(=O)N[C@@H](CO)C(=O)N[C@@H](CC(C)C)C(=O)O)[C@@H](C)O` [Peptide L11i], the solubility result in series [2] (0.4 mg/mL, D5W with all SS concentrations tested) is “soluble”; in series [2] (2 mg/mL in the higher SS concentration, D5W) it was “Some precipitation”. Further, the “Solubility in […] SS in D5W w/o DMSO” value in series [2] (no polyICLC) was “Yes”. The “solubility in low SS” value in series [2] was “soluble”. Moreover, in series [2] (with polyICLC), the “Solubility in Poly ICLC + […] SS in D5W w/o DMSO” value is reported as “Yes”.

In the case of `CSCC[C@H](N)C(=O)N[C@@H](Cc1ccccc1)C(=O)N[C@@H](C)C(=O)N[C@H](C(=O)N[C@@H](CC(C)C)C(=O)N[C@@H](CCC(N)=O)C(=O)N[C@@H](CCCNC(=N)N)C(=O)N[C@@H](CO)C(=O)N[C@@H](CO)C(=O)N[C@@H](CC(C)C)C(=O)N[C@@H](Cc1c[nH]c2ccccc12)C(=O)N[C@@H](CS)C(=O)N[C@@H](CC(C)C)C(=O)N[C@@H](CS)C(=O)O)[C@@H](C)O` [Peptide L12c], in series [2] (4% DMSO, no polyICLC), the “Solubility in […] SS in D5W w/ 4% DMSO” value was “No”.

With `CC(C)C[C@H](NC(=O)[C@H](CS)NC(=O)[C@H](Cc1c[nH]c2ccccc12)NC(=O)[C@H](CC(C)C)NC(=O)[C@H](CO)NC(=O)[C@H](CO)NC(=O)[C@H](CCCNC(=N)N)NC(=O)[C@H](CCC(N)=O)NC(=O)[C@H](CC(C)C)NC(=O)[C@@H](N)[C@@H](C)O)C(=O)N[C@@H](CS)C(=O)N[C@@H](CO)C(=O)N[C@@H](CC(N)=O)C(=O)N[C@@H](Cc1c[nH]cn1)C(=O)O` [Peptide L12d] (H-TLQRSSLWCLCSNH-OH), in series [2] (5 mM SS, after 6 hours), the solubility result was “soluble”. Also, in series [2] (no polyICLC), the “Solubility in […] SS in D5W w/o DMSO” value was “Yes”. The “Solubility in […] SS in D5W w/ 4% DMSO” value in series [2] (4% DMSO, no polyICLC) is reported as “Yes”. Also, the “Solubility in Poly ICLC + 5 mM SS in D5W w/ 4% DMSO” value in series [2] (with polyICLC, 5 mM SS in D5W, 4% DMSO) is recorded as “Yes”. Further, in series [2] (with polyICLC, 4% DMSO), the “Solubility in Poly ICLC + […] SS in D5W w/ 4% DMSO” value is given as “Yes”.

For `CC[C@H](C)[C@H](NC(=O)[C@H](CCCCN)NC(=O)[C@H](CO)NC(=O)[C@H](CCC(=O)O)NC(=O)[C@H](C)NC(=O)[C@H](CCCCN)NC(=O)[C@H](CC(C)C)NC(=O)[C@H](Cc1ccccc1)NC(=O)[C@H](CCSC)NC(=O)[C@H](Cc1ccc(O)cc1)NC(=O)CNC(=O)[C@H](CC(=O)O)NC(=O)[C@H](CCCNC(=N)N)NC(=O)[C@H](CCCCN)NC(=O)[C@@H]1CCCN1C(=O)[C@@H](N)CCCCN)C(=O)N[C@@H](CCSC)C(=O)N[C@@H](Cc1ccccc1)C(=O)N[C@@H](C)C(=O)N[C@H](C(=O)N[C@@H](CC(C)C)C(=O)N[C@@H](CCC(N)=O)C(=O)N[C@@H](CCCNC(=N)N)C(=O)N[C@@H](CO)C(=O)N[C@@H](CO)C(=O)N[C@@H](CC(C)C)C(=O)N[C@@H](Cc1c[nH]c2ccccc12)C(=O)N[C@@H](CS)C(=O)N[C@@H](CC(C)C)C(=O)N[C@@H](CS)C(=O)N[C@@H](CO)C(=O)N[C@@H](CC(N)=O)C(=O)N[C@@H](Cc1c[nH]cn1)C(=O)O)[C@@H](C)O` [Peptide L15] (H-KPKRDGYMFLKAESKIMFATLQRSSLWCLCSNH-OH; N-terminus and C-terminus assumed), the solubility entry in series [2] (0.4 mg/mL in […] SS, after 6 hours) is given as “soluble”. Also, in series [2] (5 mM SS (higher SS concentration) in D5W), the “solubility in 5 mM SS” value is reported as “not soluble”. Moreover, the “Solubility in […] SS in D5W w/o DMSO” value in series [2] (no polyICLC) is “Yes”. Besides, the “solubility in low SS” value in series [2] is given as “soluble”. For the same molecule, in series [2] (with polyICLC), the “Solubility in Poly ICLC + […] SS in D5W w/o DMSO” value is recorded as “Yes”.

As to DGYMFLKAESKIMFAT [Peptide L11e], the “Solubility in […] SS in D5W w/ 4% DMSO” value in series [2] (4% DMSO, no polyICLC) is reported as “No”.

For the molecule ESKIMFATLQRSSLWC [Peptide L11g], in series [2] (4% DMSO, no polyICLC), the “Solubility in […] SS in D5W w/ 4% DMSO” value is reported as “Yes”. Further, in series [2] (with polyICLC, 4% DMSO), the “Solubility in Poly ICLC + […] SS in D5W w/ 4% DMSO” value is “No”.
